Assay results: article PMC11414412, “Design and synthesis new indole-based aromatase/iNOS inhibitors with apoptotic antiproliferative activity” (Frontiers in Chemistry, 2024)

Columns and labels:
[1] = test system: A-549 cells; test: Antiproliferative assay, A-549; assay type: cell-based; settings: Homo sapiens, A549; A-549 lung cancer cell line; read-out: Antiproliferative activity IC50 ± SEM, A-549
Protocol: (§1) 4.2.2. Assay for antiproliferative effect
(§2) To explore the antiproliferative potential of compounds propidium iodide fluorescence assay was performed using different cell lines such as Panc-1 (pancreas cancer cell line), MCF-7 (breast cancer cell line), HT-29 (colon cancer cell line) and A-549 (epithelial cancer cell line), respectively. To calculate the total nuclear DNA, a fluorescent dye (propidium iodide, PI) is used which can attach to the DNA, thus offering a quick and precise technique. PI cannot pass through the cell membrane and its signal intensity can be considered as directly proportional to quantity of cellular DNA. Cells whose cell membranes are damaged or have changed permeability are counted as dead ones. The assay was performed by seeding the cells of different cell lines at a density of 3000-7500 cells/well (in200μl medium) in culture plates followed by incubation for 24h at 37 °C in humidified 5%CO2/95% air atmospheric conditions. The medium was removed; the compounds were added to the plates at 10 μM concentrations (in 0.1% DMSO) in triplicates, followed by incubation for 48h. DMSO (0.1%) was used as control. After incubation, medium was removed followed by the addition of PI (25 μl, 50μg/mL in water/medium) to each well of the plates. At - 80 °C, the plates were allowed to freeze for 24 h, followed by thawing at 25 °C. A fluorometer (Polar-Star BMG Tech) was used to record the readings at excitation and emission wavelengths of 530 and 620 nm for each well. The percentage cytotoxicity of compounds was calculated using […]
(§3) Where ATC= Absorbance of treated cells and AC= Absorbance of control. Erlotinib was used as positive control in the assay.

[2] = Cell viability assay (MTT) on normal mammary epithelial cells; assay type: cell-based, human; settings: human, MCF-10A normal mammary gland epithelial cells, MCF-10A normal cells, 4 days incubation
Protocol: This test investigates the effects of the new compounds 3–16 on normal cell lines to determine their safety. The normal human mammary gland epithelial (MCF-10 A) cell line was used to test the viability of the tested compounds. After 4 days of incubation on MCF-10 A cells within 50 µM of each investigated compound, cell viability was determined using the MTT assay ([Gomaa et al., 2020]; [Marzouk et al., 2020]).
The normal human mammary gland epithelial (MCF-10A) cell line was used to test the viability of the tested compounds. After 4 days of incubation on MCF-10A cells within 50 µM of each investigated compound, cell viability was determined using the MTT assay ([Gomaa et al., 2020]; [Marzouk et al., 2020]). Refer to Supplementary Appendix SA1 (supp. File) for more details.
4.2. Biological evaluation
4.2.1 Cell Viability assay (MTT assay)
MTT assay was performed to investigate the effect of the synthesized compounds on mammary epithelial cells (MCF-10A). The cells were propagated in medium consisting of Ham's F-12 medium/ Dulbecco's modified Eagle's medium (DMEM) (1:1) supplemented with 10% foetal calf serum, 2 mM glutamine, insulin (10 μg/mL), hydrocortisone (500 ng/mL) and epidermal growth factor (20 ng/mL). Trypsin ethylenediamine tetra acetic acid (EDTA) was used to passage the cells after every 2-3 days. 96-well flat-bottomed cell culture plates were used to seed the cells at a density of 10^4 cells mL-1. The medium was aspirated from all the wells of culture plates after 24 h followed by the addition of synthesized compounds (in 200 μL medium to yield a final concentration of 0.1% (v/v) dimethyl sulfoxide) into individual wells of the plates. Four wells were designated to a single compound. The plates were allowed to incubate at 37°C for 96 h. Afterwards, the medium was aspirated and 3-[4,5-dimethylthiazol-2-yl]-2,5-diphenyltetrazolium bromide (MTT) (0.4 mg/mL) in medium was added to each well and subsequently incubated for 3 h. The medium was aspirated and 150 μL dimethyl sulfoxide (DMSO) was added to each well. The plates were vortexed followed by the measurement of absorbance at 540 nm on a microplate reader. The results were presented as inhibition (%) of proliferation in contrast to controls comprising 0.1%

[3] = test system: HT-29 cells; test: Antiproliferative assay, HT-29; assay type: cell-based; settings: Homo sapiens; HT-29 colon cancer cell line; read-out: Antiproliferative activity IC50 ± SEM, HT-29
Protocol: as §1, §2, §3

[4] = test system: four human cancer cell lines (A-549, MCF-7, Panc-1, HT-29); test: Antiproliferative assay, average over four cancer cell lines (GI50); assay type: cell-based; settings: for IC50: Homo sapiens, average of IC50 against A-549, MCF-7, Panc-1, HT-29
Protocol: See Supplementary Appendix SA1 for more details.
as §1
To explore the antiproliferative potential of compounds propidium iodide fluorescence assay was performed using different cell lines such as Panc-1 (pancreas cancer cell line), MCF-7 (breast […]
respectively. To calculate the total nuclear DNA, a fluorescent dye (propidium iodide, PI) is used which can attach to the DNA, thus offering a quick and precise technique. PI cannot pass through the cell membrane and its signal intensity can be considered as directly proportional to quantity of cellular DNA. Cells whose cell membranes are damaged or have changed permeability are counted as dead ones. The assay was performed by seeding the cells of different cell lines at a density of […]
The medium was removed; the compounds were added to the plates at 10 μM concentrations (in 0.1% DMSO) in triplicates, followed by incubation for 48h. DMSO (0.1%) was used as control. After incubation, medium was removed followed by the addition of PI (25 μl, 50μg/mL in water/medium) to each well of the plates. At - 80 °C, the plates were allowed to freeze for 24 h, followed by thawing at 25 °C. A fluorometer (Polar-Star BMG Tech) was used to record the readings at excitation and emission wavelengths of 530 and 620 nm for each well. The percentage cytotoxicity of compounds was calculated using […]
Where ATC= Absorbance of treated cells and AC= Absorbance of control. […]
positive control in the assay.

[5] = test system: Panc-1 cells; test: Antiproliferative assay, Panc-1; assay type: cell-based; settings: Homo sapiens; Panc-1 pancreatic cancer cell line; read-out: Antiproliferative activity IC50 ± SEM, Panc-1
Protocol: as §1, §2, §3

[6] = test system: MCF-7 cells; test: Antiproliferative assay, MCF-7; assay type: cell-based; settings: Homo sapiens, MCF7; MCF-7 breast cancer cell line; read-out: Antiproliferative activity IC50 ± SEM, MCF-7
Protocol: as §1, §2, §3

[7] = target: T1, aromatase (CYP19) (Homo sapiens, UniProt P11511); test: Aromatase inhibitory assay (Gentest kit, DBF fluorometric substrate)
T1 sequence (P11511 1-503): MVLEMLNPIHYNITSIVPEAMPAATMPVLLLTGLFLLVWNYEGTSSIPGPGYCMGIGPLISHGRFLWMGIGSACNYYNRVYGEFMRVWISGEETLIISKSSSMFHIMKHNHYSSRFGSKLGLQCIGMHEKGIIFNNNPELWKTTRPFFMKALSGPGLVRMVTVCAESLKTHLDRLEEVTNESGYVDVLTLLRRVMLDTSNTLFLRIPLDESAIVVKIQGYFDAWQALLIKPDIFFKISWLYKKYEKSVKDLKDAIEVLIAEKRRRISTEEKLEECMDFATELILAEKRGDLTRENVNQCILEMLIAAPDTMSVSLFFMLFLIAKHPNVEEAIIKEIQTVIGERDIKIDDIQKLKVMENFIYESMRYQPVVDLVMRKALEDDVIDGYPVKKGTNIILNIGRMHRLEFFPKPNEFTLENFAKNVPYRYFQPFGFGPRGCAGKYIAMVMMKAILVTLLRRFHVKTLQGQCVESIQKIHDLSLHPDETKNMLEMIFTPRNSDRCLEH
Protocol: The aromatase inhibitory effect was performed using the method reported by Stressor et al.[35].
This method was carried out according to the Gentest kit using CYP19 enzyme and DBF as a
fluorometric substrate. DBF was dealkylated by aromatase and then hydrolyzed to give the
fluorescein product. Briefly, 100 μL of cofactor, containing 78.4 μL of 50 mM phosphate buffer
(pH 7.4); 20 μL of 20x NADPH-generating system (26 mM NADP+, 66 mM glucose-6-phosphate,
and 66 mM MgCl2); and 1.6 μL of 100 U/mL glucose-6-phosphate dehydrogenase, was pipetted
into a 96-well plate and preincubated in 37 °C (water bath) for 10 min. The reaction was initiated
by addition of 100 μL of enzyme/substrate mixture containing 77.3 μL of 50 mM
phosphate buffer (pH 7.4); 12.5 μL of 16 pmol/mL CYP19; 0.2 μL of 0.2 mM DBF, and 10 μL of
0.25 mM diluted tested sample or 10% DMSO as a negative control or letrozole as a positive
control. Fluorescence signal was recorded using an excitation wavelength of 490 nm and emission
Percentage of inhibition (%inhibition) was calculated
as shown in Equation (1).
assayed in triplicate. Finally, IC50 values were determined by plot of concentrations versus %

SMILES | IC50 [1] [nM] | viability at 4 days, 50 µM [2] [%] | IC50 [3] [nM] | IC50 [4] [nM] | IC50 [5] [nM] | IC50 [6] [nM] | melting point [°C] | IC50 [7] [nM] | Fold less potent than compound 12 (GI50) [4] [fold]
CCc1c(C(=O)NC(C(=O)OCc2ccccc2)C(C)O)[nH]c2ccc(Cl)cc12 (stereo not shown) [Compound 3, Benzyl 2-(5-chloro-3-ethyl-1H-indol-2-carboxamido)-3-hydroxybutanoate] | 57 ± 5 | 91 | 60 ± 5 | 59 | 58 ± 5 | 62 ± 5 | – | – | –
CCc1c(C(=O)NC(C(C)=O)C(=O)OCc2ccccc2)[nH]c2ccc(Cl)cc12 (stereo not shown) [Compound 4, benzyl 2-(5-chloro-3-ethyl-1h-indol-2-carboxamido)-3-oxobutanoate] | 59 ± 5 | 89 | 64 ± 6 | 62 | 60 ± 5 | 65 ± 6 | – | – | –
CCc1c2cc(Cl)ccc2n2c(C)c(C(=O)O)[nH]c(=O)c12 [Compound 6, 8-chloro-10-ethyl-4-methyl-1-oxo-1,2-dihydropyrazino [1,2-a]indole-3-carboxylic acid] | 65 ± 6 | 92 | 66 ± 6 | 66 | 64 ± 6 | 68 ± 6 | 270 to 272 | – | –
CCOC(=O)C(Cc1ccccc1)NC(=O)c1[nH]c2ccc(Cl)cc2c1CC (stereo not shown) [Compound 8, ethyl 2-(5-chloro-3-ethyl-1h-indole-2-carboxamido)-3-phenylpropanoate] | 37 ± 3 | 92 | 38 ± 3 | 38 | 37 ± 3 | 40 ± 3 | – | 33 ± 3 | –
CCc1c2n(c3ccc(Cl)cc13)C(=O)C(Cc1ccccc1)NC2=O (stereo not shown) [Compound 9, 3-benzyl-8-chloro-10-ethyl-2,3-dihydropyrazino [1,2-a] indole-1,4-dione] | 48 ± 4 | 91 | 50 ± 5 | 49 | 47 ± 4 | 50 ± 4 | 196 to 198 | – | –
CCc1c2n(c3ccc(Cl)cc13)C(O)C(Cc1ccccc1)NC2=O (stereo not shown) [Compound 10, 3-benzyl-8-chloro-10-ethyl-4-hydroxy-3,4-dihydropyrazino [1,2-a] indol-1(2H)-one] | 53 ± 5 | 89 | 54 ± 5 | 54 | 54 ± 5 | 56 ± 5 | 160 to 162 | – | –
CCc1c2cc(Cl)ccc2n2cc(Cc3ccccc3)[nH]c(=O)c12 [Compound 11, 3-Benzyl-8-chloro-10-ethylpyrazino[1,2-a]indol-1(2H)-one] | 40 ± 4 | 92 | 42 ± 4 | 41 | 40 ± 4 | 43 ± 4 | – | – | 1.7
CCc1c(C(=O)NC(C(=O)OC)c2ccccc2)[nH]c2ccc(Cl)cc12 (stereo not shown) [Compound 13, Methyl 2-(5-chloro-3-ethyl-1h-indole-2-carboxamido)-2-phenylacetate] | 34 ± 3 | 91 | 34 ± 3 | 35 | 35 ± 3 | 36 ± 3 | 210 to 212 | 28 ± 2 | –
CCc1c2n(c3ccc(Cl)cc13)C(=O)C(c1ccccc1)NC2=O (stereo not shown) [Compound 14, 8-Chloro-10-ethyl-3-phenyl-2,3-dihydropyrazino [1,2-a] indole-1,4-dione] | 44 ± 4 | 90 | 46 ± 4 | 45 | 44 ± 4 | 46 ± 4 | 202 to 204 | – | –
CCc1c2n(c3ccc(Cl)cc13)C(O)C(c1ccccc1)NC2=O (stereo not shown) [Compound 15, 8-Chloro-10-ethyl-4-hydroxy-3-phenyl-3,4-dihydropyrazino [1,2-a] indol-1(2H)-one] | 69 ± 6 | 92 | 74 ± 7 | 72 | 72 ± 7 | 76 ± 7 | 213 to 215 | – | –
C#Cc1cccc(Nc2ncnc3cc(OCCOC)c(OCCOC)cc23)c1 [Erlotinib, reference compound] | 30 ± 3 | – | 30 ± 3 | – | 30 ± 3 | 40 ± 3 | – | – | –
